According to EPA's ToxRefDB 2:

Legend:
rat [1] = conditions: Subchronic dermal toxicity, sprague dawley, Topical, dose end: 13 week, group: systemic, systemic / in life observation / clinical signs / erythema
rat [2] = conditions: Prenatal developmental toxicity study, sprague dawley, Oral, Gavage/Intubation, dose end: 15 GD
dog = conditions: Chronic toxicity; beagle; Oral; Feed; dose end: 53 week; group: cholinesterase; cholinesterase / cholinesterase / cholinesterase / erythrocyte cholinesterase (che) + cholinesterase / cholinesterase / cholinesterase / …
rat [3] = conditions: Multigenerational reproductive toxicity study, sprague dawley, Oral, Feed, dose end: 2 generation
rabbit [4] = conditions: Prenatal developmental toxicity study, dutch, Oral, Gavage/Intubation, dose end: 18 GD
rabbit [5] = conditions: Prenatal developmental toxicity study, chinchilla, Oral, Gavage/Intubation, dose end: 18 GD
mouse [6] = conditions: Combined chronic toxicity/carcinogenicity, b6c3f1, Oral, Feed, dose end: 2 year, group: systemic
rat [7] = conditions: Subchronic oral toxicity in rodents, fischer, Feed, dose end: 13 week, group: systemic, systemic / in life observation / body weight / body weight
rat [8] = conditions: Combined chronic toxicity/carcinogenicity, fischer, Oral, Feed, dose end: 2 year
mouse [9] = conditions: Combined chronic toxicity/carcinogenicity, b6c3f1, Oral, Feed, dose end: 102 week
[10] = group: developmental, systemic / in life observation / body weight / fetal weight
[11] = group: maternal, reproductive / reproductive performance / resorptions / resorptions
[12] = group: maternal, systemic / in life observation / body weight / body weight gain + systemic / in life observation / clinical signs / abnormal movements + …
[13] = group: cholinesterase, cholinesterase / cholinesterase / cholinesterase / brain cholinesterase (che) + cholinesterase / cholinesterase / cholinesterase / …
[14] = group: offspring, developmental / offspring survival late / [other] / [other] + developmental / offspring survival late / viability index / viability index + …
[15] = group: parental, systemic / pathology microscopic / epididymis / vacuolization
[16] = group: parental, systemic / pathology microscopic / epididymis / vacuolization + systemic / organ weight / epididymis / absolute
[17] = group: reproductive, reproductive / offspring survival early / birth index / birth index + reproductive / reproductive performance / fertility / fertility + …
[18] = group: developmental, systemic / in life observation / body weight / fetal weight + developmental / developmental malformation / bone / unossified
[19] = group: maternal, systemic / in life observation / clinical signs / soft stools
[20] = group: maternal, systemic / in life observation / clinical signs / soft stools + reproductive / reproductive performance / resorptions / resorptions + …
[21] = group: maternal, reproductive / reproductive performance / resorptions / resorptions + reproductive / reproductive performance / aborted / aborted + …
[22] = systemic / in life observation / clinical signs / fur (altered appearance) + systemic / pathology microscopic / skin / fibrosarcoma + …
[23] = systemic / pathology microscopic / skin / fibrosarcoma + systemic / pathology microscopic / skin / rhabdomyosarcoma + systemic / in life …
[24] = group: systemic, systemic / in life observation / clinical signs / alopecia + systemic / in life observation / clinical signs / soft stools + systemic / in …
[25] = group: cholinesterase, cholinesterase / cholinesterase / cholinesterase / plasma cholinesterase (che)
[26] = group: systemic, systemic / in life observation / body weight / body weight
[27] = group: systemic, systemic / in life observation / body weight / body weight + systemic / clinical chemistry / cholesterol / cholesterol + systemic / organ …

Compound `O=[N+]([O-])C(CO)(CO)CO` [2-(Hydroxymethyl)-2-nitro-1,3-propanediol] has an LEL (rat [1]) of 1000 mg/kg/day, an LOAEL (rat [1]) of over 1000 mg/kg/day and an NEL (rat [1]) of 500 mg/kg/day. For the same compound, the NOAEL (rat [1]) was at least 1000 mg/kg/day, the LEL (rat [2]; [10]) was 750 mg/kg/day and the LOAEL (rat [2]; [10]) was over 750 mg/kg/day. For the same compound, the NEL (rat [2]; [10]) was 375 mg/kg/day, the NOAEL (rat [2]; [10]) was at least 750 mg/kg/day and the LEL (rat [2]; [11]) was 375 mg/kg/day. The LOAEL (rat [2]; [12]) was 750 mg/kg/day, the NEL (rat [2]; [12]) was 50 mg/kg/day and the NOAEL (rat [2]; [12]) was 375 mg/kg/day.
`COP(=S)(OC)Oc1ccc(SC)c(C)c1` [Fenthion] showed an LEL (dog) of 0.258 mg/kg/day, an LOAEL (dog) of 0.258 mg/kg/day and an NEL (dog) of 0.056 mg/kg/day. It also gave an NOAEL (dog) of 0.056 mg/kg/day, an LEL (rat [3]; [13]) of 0.7 mg/kg/day and an LOAEL (rat [3]; [13]) of 0.7 mg/kg/day. It also gave an NEL (rat [3]; [13]) of 0.1 mg/kg/day, an NOAEL (rat [3]; [13]) of 0.1 mg/kg/day and an LEL (rat [3]; [14]) of 5 mg/kg/day. For the same compound, the LOAEL (rat [3]; [14]) was over 5 mg/kg/day, the NEL (rat [3]; [14]) was 0.7 mg/kg/day and the NOAEL (rat [3]; [14]) was at least 5 mg/kg/day. For the same compound, the LEL (rat [3]; [15]) was 0.7 mg/kg/day, the LOAEL (rat [3]; [15]) was 0.7 mg/kg/day and the NEL (rat [3]; [16]) was 0.1 mg/kg/day. The NOAEL (rat [3]; [16]) was 0.1 mg/kg/day, the LEL (rat [3]; [17]) was 5 mg/kg/day and the LOAEL (rat [3]; [17]) was over 5 mg/kg/day. It also gave an NEL (rat [3]; [17]) of 0.7 mg/kg/day, an NOAEL (rat [3]; [17]) of at least 5 mg/kg/day and an LEL (rabbit [4]; [13]) of 2.75 mg/kg/day. The LOAEL (rabbit [4]; [13]) was 2.75 mg/kg/day, the NEL (rabbit [4]; [13]) was 1 mg/kg/day and the NOAEL (rabbit [4]; [13]) was 1 mg/kg/day. The LEL (rabbit [4]; [10]) was 2.75 mg/kg/day, the LOAEL (rabbit [4]; [18]) was over 7.5 mg/kg/day and the NEL (rabbit [4]; [18]) was 1 mg/kg/day. It also gave an NOAEL (rabbit [4]; [18]) of at least 7.5 mg/kg/day, an LEL (rabbit [4]; [19]) of 2.75 mg/kg/day and an LOAEL (rabbit [4]; [19]) of 2.75 mg/kg/day. For the same compound, the NEL (rabbit [4]; [20]) was 1 mg/kg/day, the NOAEL (rabbit [4]; [20]) was 1 mg/kg/day and the LEL (rabbit [5]; [10]) was 18 mg/kg/day. The LOAEL (rabbit [5]; [10]) was 18 mg/kg/day, the NEL (rabbit [5]; [10]) was 6 mg/kg/day and the NOAEL (rabbit [5]; [10]) was 6 mg/kg/day. It also gave an LEL (rabbit [5]; [11]) of 6 mg/kg/day, an LOAEL (rabbit [5]; [11]) of 6 mg/kg/day and an NEL (rabbit [5]; [21]) of 2 mg/kg/day. For the same compound, the NOAEL (rabbit [5]; [21]) was 2 mg/kg/day, the LOAEL (mouse [6]; [22]) was over 3 mg/kg/day and the NOAEL (mouse [6]; [22]) was at least 3 mg/kg/day. The LEL (mouse [6]; [23]) was 1.5 mg/kg/day, the NEL (mouse [6]; [23]) was under 1.5 mg/kg/day and the LEL (rat [7]) was 16 mg/kg/day. For the same compound, the LOAEL (rat [7]) was 16 mg/kg/day, the NEL (rat [7]) was 8 mg/kg/day and the NOAEL (rat [7]) was 8 mg/kg/day. For the same compound, the LEL (rat [8]; [13]) was 0.07 mg/kg/day, the LOAEL (rat [8]; [13]) was 0.07 mg/kg/day and the NEL (rat [8]; [13]) was under 0.07 mg/kg/day. It also gave an NOAEL (rat [8]; [13]) of under 0.07 mg/kg/day, an LEL (rat [8]; [24]) of 0.3 mg/kg/day and an LOAEL (rat [8]; [24]) of 0.3 mg/kg/day. It also gave an NEL (rat [8]; [24]) of 0.07 mg/kg/day, an NOAEL (rat [8]; [24]) of 0.07 mg/kg/day and an LEL (mouse [9]; [25]) of 0.03 mg/kg/day. It also gave an LOAEL (mouse [9]; [25]) of 0.03 mg/kg/day, an NEL (mouse [9]; [25]) of under 0.03 mg/kg/day and an NOAEL (mouse [9]; [25]) of under 0.03 mg/kg/day. For the same compound, the LEL (mouse [9]; [26]) was 1.95 mg/kg/day, the LOAEL (mouse [9]; [26]) was 1.95 mg/kg/day and the NEL (mouse [9]; [27]) was 0.4 mg/kg/day. It also gave an NOAEL (mouse [9]; [27]) of 0.4 mg/kg/day.
